# Data taken from patent US7094561B2, “Method of monitoring the menstrual cycle and/or pregnancy in a female” (University of Guelph, priority 2000, dated 2006).
# B1: recombinant mulFN-γ: recombinant murine interferon-gamma (protein, UniProt P01580 23-155, looked up)
# Interferon gamma: HGTVIESLESLNNYFNSSGIDVEEKSLFLDIWRNWQKDGDMKILQSQIISFYLRLFEVLKDNQAISNNISVIESHLITTFFSNSKAKKDAFMSIAKFEVNNPQVQRQAFNELIRVVHQLLPESSLRKRKRSRC
# Columns and labels:
# uterine tissue = test: Adhesion of CD56-labeled human PBL to uterine tissue from hormone-treated ovariectomized mice; format: in vivo, mouse; details: for adhesion of CD56bright human lymphocytes to uterine tissue: uteri from Ovx mice treated with hormone, versus placebo-treated Ovx or virgin
# Text: C57BI/6J (Jackson Laboratory, Bar Harbor, Me.) and Balb/c (Taconic, Germantown, N.Y.) mice, aged 7–8 wk were studied. Some females were used for timed matings with the morning of the copulation plug designated gd 0. Other females (n=34) were surgically ovariectomized under Avertin anaesthesia (24). Females were rested 6 days and then received daily subcutaneous injections of either hormone dissolved in sesame oil or sesame oil alone between 9.00–11.00 a.m. as indicated in FIG. 2.^81-84 Some of the Ovx hormone-treated mice also had 10 μl sterile sesame oil injected into a uterine horn to induce decidualization 48 h prior to euthanasia. Ovx mice were euthanized 24 hours after receiving their last injection and vaginal smears were collected and stained with Wright-Giemsa to confirm treatment success. Non-pregnant (NP) controls were virgin females who had never been paired with males. All procedures were performed under appropriate animal utilization protocols. The following samples were collected from each mouse and embedded in OCT (Miles Laboratories) for cryosectioning: i) a pool of 10–12 PLN from subcutaneous and intermuscular sites; ii) a pool of 10–12 intestinal PP; iii) the entire pancreas; and iv) the uterus. For some experiments, the median iliac lymph nodes that drain the pelvic organs, including the uterus, were also dissected. Non-decidualized uteri were trimmed at the ovarian and cervical ends, then incised longitudinally along one side on an axis midway between the mesometrial and anti-mesometrial aspects. The mesometrium (the mesentery suspending the uterus, also known as the broad ligament) was not removed and served as a positional landmark during analyses. For embedding, samples were oriented to produce full thickness longitudinal sections that included both antimesometrial and mesometrial sides. […] The cell suspensions evaluated for adhesive interactions with endothelium were human peripheral blood lymphocytes (PBL) isolated from random (female and male) normal donor buffy coat leukocyte concentrates (American Red Cross, Rochester, N.Y.);^85,68 and TK-1 cells (an alpha integrin^high, L-selectin^low mouse T lymphoma cell line).^85 In selected experiments, human PBL were cultured 6 hr at 37° C. or 40° C. before being applied to tissue sections, as previously described^12. […] Following removal of non adherent cells, glutaraldehyde-fixed specimens were stained with 0.5% toluidine blue and adhesion was scored on 300–500 HEV/PLN or PP specimen or equivalent numbers of small vessels in pancreatic tissue. When CD56-pre-labeled cells were used, fluorescent cells were quantified in 10 high power fields (HPF; one HPF=5 mm^2) at 200× magnification using an Olympus BH2/RFL fluorescence microscope (Olympus Optical, Tokyo, Japan) (10;29). […]
# pancreas endothelium = test: Adhesion of PBL or TK-1 cells to pancreas endothelium from hormone-treated ovariectomized mice; format: in vivo, mouse; details: tissue from hormone-treated Ovx mice
# Text: C57BI/6J (Jackson Laboratory, Bar Harbor, Me.) and Balb/c (Taconic, Germantown, N.Y.) mice, aged 7–8 wk were studied. Some females were used for timed matings with the morning of the copulation plug designated gd 0. Other females (n=34) were surgically ovariectomized under Avertin anaesthesia (24). Females were rested 6 days and then received daily subcutaneous injections of either hormone dissolved in sesame oil or sesame oil alone between 9.00–11.00 a.m. as indicated in FIG. 2.^81-84 Some of the Ovx hormone-treated mice also had 10 μl sterile sesame oil injected into a uterine horn to induce decidualization 48 h prior to euthanasia. […]
# The cell suspensions evaluated for adhesive interactions with endothelium were human peripheral blood lymphocytes (PBL) isolated from random (female and male) normal donor buffy coat leukocyte concentrates (American Red Cross, Rochester, N.Y.);^85,68 and TK-1 cells (an alpha integrin^high, L-selectin^low mouse T lymphoma cell line).^85 In selected experiments, human PBL were cultured 6 hr at 37° C. or 40° C. before being applied to tissue sections, as previously described^12. […] Following removal of non adherent cells, glutaraldehyde-fixed specimens were stained with 0.5% toluidine blue and adhesion was scored on 300–500 HEV/PLN or PP specimen or equivalent numbers of small vessels in pancreatic tissue. […]
# [1] = test system: high endothelial venules (HEV) of peripheral lymph nodes (PLN); test: Adhesion under shear of human PBL to PLN HEV in frozen sections from hormone-treated ovariectomized mice; format: in vivo, mouse; details: for L-selectin-dependent and α4 integrin-dependent lymphocyte adhesion to endothelium of secondary lymphoid tissues, compared to pregnancy: hormone-treated Ovx mice versus pregnant mice, shear flow
# Text: C57BI/6J (Jackson Laboratory, Bar Harbor, Me.) and Balb/c (Taconic, Germantown, N.Y.) mice, aged 7–8 wk were studied. Some females were used for timed matings with the morning of the copulation plug designated gd 0. Other females (n=34) were surgically ovariectomized under Avertin anaesthesia (24). Females were rested 6 days and then received daily subcutaneous injections of either hormone dissolved in sesame oil or sesame oil alone between 9.00–11.00 a.m. as indicated in FIG. 2.^81-84 Some of the Ovx hormone-treated mice also had 10 μl sterile sesame oil injected into a uterine horn to induce decidualization 48 h prior to euthanasia. Ovx mice were euthanized 24 hours after receiving their last injection and vaginal smears were collected and stained with Wright-Giemsa to confirm treatment success. Non-pregnant (NP) controls were virgin females who had never been paired with males. All procedures were performed under appropriate animal utilization protocols. The following samples were collected from each mouse and embedded in OCT (Miles Laboratories) for cryosectioning: i) a pool of 10–12 PLN from subcutaneous and intermuscular sites; ii) a pool of 10–12 intestinal PP; iii) the entire pancreas; and iv) the uterus. For some experiments, the median iliac lymph nodes that drain the pelvic organs, including the uterus, were also dissected. Non-decidualized uteri were trimmed at the ovarian and cervical ends, then incised longitudinally along one side on an axis midway between the mesometrial and anti-mesometrial aspects. The mesometrium (the mesentery suspending the uterus, also known as the broad ligament) was not removed and served as a positional landmark during analyses. For embedding, samples were oriented to produce full thickness longitudinal sections that included both antimesometrial and mesometrial sides. Uteri from gd 3 were flushed for blastocysts to confirm pregnancy. The cell suspensions evaluated for adhesive interactions with endothelium were human peripheral blood lymphocytes (PBL) isolated from random (female and male) normal donor buffy coat leukocyte concentrates (American Red Cross, Rochester, N.Y.);^85,68 and TK-1 cells (an alpha integrin^high, L-selectin^low mouse T lymphoma cell line).^85 In selected experiments, human PBL were cultured 6 hr at 37° C. or 40° C. before being applied to tissue sections, as previously described^12. In all assays, some cell aliquots were incubated with function blocking mAb specific for human L-selectin (DREG-56, American Type Cell Collection [ATCC], Manassas, Va., 10 μg/ml) or human alpha4 integrin (HP2/1, Coulter Immunology, Hialeah, Fla., 10 μg/ml). To identify adherent human NK cells, PBL aliquots were pre-labeled with anti-CD56 mAb (NKG1, Coulter Immunology, diluted 1:100) followed by rabbit anti-mouse Ig-rhodamine isothiocynate (RITC) Ab as described previously (10;29). Control aliquots were treated with the secondary reagent alone. […] Following removal of non adherent cells, glutaraldehyde-fixed specimens were stained with 0.5% toluidine blue and adhesion was scored on 300–500 HEV/PLN or PP specimen or equivalent numbers of small vessels in pancreatic tissue. When CD56-pre-labeled cells were used, fluorescent cells were quantified in 10 high power fields (HPF; one HPF=5 mm^2) at 200× magnification using an Olympus BH2/RFL fluorescence microscope (Olympus Optical, Tokyo, Japan) (10;29). […]
# [2] = test system: high endothelial venules (HEV) of Peyer's Patches (PP); test: Adhesion under shear of TK-1 cells to Peyer's Patch HEV from hormone-treated ovariectomized mice; format: in vivo, mouse; details: tissue from Ovx mice treated with hormone, versus placebo or virgin controls
# Text: C57BI/6J (Jackson Laboratory, Bar Harbor, Me.) and Balb/c (Taconic, Germantown, N.Y.) mice, aged 7–8 wk were studied. Some females were used for timed matings with the morning of the copulation plug designated gd 0. Other females (n=34) were surgically ovariectomized under Avertin anaesthesia (24). Females were rested 6 days and then received daily subcutaneous injections of either hormone dissolved in sesame oil or sesame oil alone between 9.00–11.00 a.m. as indicated in FIG. 2.^81-84 Some of the Ovx hormone-treated mice also had 10 μl sterile sesame oil injected into a uterine horn to induce decidualization 48 h prior to euthanasia. […] The cell suspensions evaluated for adhesive interactions with endothelium were human peripheral blood lymphocytes (PBL) isolated from random (female and male) normal donor buffy coat leukocyte concentrates (American Red Cross, Rochester, N.Y.);^85,68 and TK-1 cells (an alpha integrin^high, L-selectin^low mouse T lymphoma cell line).^85 In selected experiments, human PBL were cultured 6 hr at 37° C. or 40° C. before being applied to tissue sections, as previously described^12. […] Following removal of non adherent cells, glutaraldehyde-fixed specimens were stained with 0.5% toluidine blue and adhesion was scored on 300–500 HEV/PLN or PP specimen or equivalent numbers of small vessels in pancreatic tissue. […]
# human lymphocytes = test: Effect of blood collection anti-coagulant on adhesion of human lymphocytes to LN from pregnant mice; format: cell-based; details: blood collected into the anti-coagulant
# Experimental: Male and female subjects of legal age and in good health were recruited to donate up to 30 ml of blood, using venipuncture into evacuated, sterile blood collection tubes. All subjects were informed about the risks of participation in this study and signed approved informed consent forms. The blood was layered onto an equal volume of Histopaque 1.077 (Sigma) and centrifuged at 400×g for 30 min at RT according to manufacturers instructions. The cells at the interface were collected, washed thrice and counted.
# The effects of anti-coagulants on adhesive properties of isolated PBL were assessed. Ten ml of blood was collected by venipuncture (40 ml collected per subject) into sterile evacuated tubes containing either Acid Citrate Dextrose (ACD), EDTA, Sodium Citrate, or heparin. Lymphocytes were isolated as described above and applied to sections of LN from pregnant mice. The sections were assessed for lymphocyte adhesion by microscopy.
# [3] = test system: uterine artery and decidua; details: alymphoid mice, daily 100–1000 IU/6 days; cited from earlier work
molecule,measurement,setting,value
"C[C@]12CC[C@@H]3c4ccc(O)cc4CC[C@H]3[C@@H]1CC[C@@H]2O [E2, 17-beta estradiol]",adhesion of CD56bright human lymphocytes to uterine tissue,uterine tissue,equivalent functional changes
same,percentage of CD56bright cells among lymphocytes adhering to uterine tissue (enrichment),"uterine tissue; uterine tissue from mouse receiving hormone therapy, starting preparation 2–3% CD56bright",70%
same,adhesion of PBL or TK1 cells to pancreas,pancreas endothelium,no effect
same,adhesion of PBL or TK1 cells to pancreas,pancreas endothelium; listed as estrogen,no increase
same,"L-selectin-dependent and α4 integrin-dependent lymphocyte adhesion to endothelium of secondary lymphoid tissues, compared to pregnancy",[1],fully mimicked the functional gains in adhesion promoted by pregnancy
same,"L-selectin-dependent and α4 integrin-dependent lymphocyte adhesion to endothelium of secondary lymphoid tissues, compared to pregnancy",[1]; listed as estrogen,equivalent to pregnancy
"CC(=O)[C@H]1CC[C@H]2[C@@H]3CCC4=CC(=O)CC[C@]4(C)[C@H]3CC[C@]12C [P4, progesterone]",adhesion of CD56bright human lymphocytes to uterine tissue,uterine tissue,equivalent functional changes
same,adhesion of CD56bright human lymphocytes to uterine tissue,uterine tissue; listed as progesterone,promoted
same,"L-selectin-dependent and α4 integrin-dependent lymphocyte adhesion to endothelium of secondary lymphoid tissues, compared to pregnancy",[1],fully mimicked the functional gains in adhesion promoted by pregnancy
same,"L-selectin-dependent and α4 integrin-dependent lymphocyte adhesion to endothelium of secondary lymphoid tissues, compared to pregnancy",[1]; listed as progesterone,equivalent to pregnancy
same,L-selectin-dependent adhesion of human PBL to PLN HEV,"[1]; tissue from Ovx mice treated with hormone, versus placebo (oil) or virgin controls",enhanced L-selectin-dependent binding
same,alpha4 integrin/MAdCAM-1-dependent TK-1 cell adhesion to PP HEV,[2],"enhanced, progesterone-dependent, and α4 integrin-dependent, binding"
O=C([O-])CC(O)(CC(=O)[O-])C(=O)[O-].[Na+].[Na+].[Na+] [sodium citrate],adhesion of isolated human lymphocytes to LN from pregnant mice,human lymphocytes,did not interfere with adhesion
Tumor necrosis factor-alpha,uterine artery modification and decidua,[3],lacked these effects
B1,uterine artery modification and decidua,[3],promoted full uterine artery modification and normalized deciduas
